Measurements published in ChEMBL document CHEMBL6109081, “Discovery and optimization of phenazopyridine hydrochloride as novel SARS-CoV-2 RdRp inhibitors” (Eur J Med Chem, 2025).
pEC50, pKd: −log10 of the molar value. The source made the active and inactive calls. The calls are words filed in the database; no cut-off is given here.

Assays:
[1] = molecular target: Replicase polyprotein 1ab (Severe acute respiratory syndrome coronavirus 2) (UniProt P0DTD1); assay: Inhibition of SARS-CoV-2 RdRp in HEK-293T cells at 10 uM measured after 24 hrs relative to control; type: cell-based
[2] = Antiviral activity against SARS-CoV-2 infected in HEK293T cells assessed as inhibition of SARS-CoV-2 RdRp in the presence of coelenterazine-h incubated for 24 hrs by Gaussia luciferase reporter assay; type: functional, cell-based; conditions: Homo sapiens, HEK-293T
[3] = Cytotoxicity against HEK293T cells assessed as inhibition of cell growth measured after 48 hrs by CCK8 assay; type: toxicity, cell-based, HEK-293T; conditions: human
[4] = molecular target: T1, Replicase polyprotein 1ab (Severe acute respiratory syndrome coronavirus 2, UniProt P0DTD1); assay: Inhibition of SARS-CoV-2 nsp14 in HEK-293T cells cotransfected with pCoV-GLuc incubated for 24 hrs in the presence of coelenterazine-h by Gaussia luciferase reporter assay; type: cell-based
[5] = molecular target: Replicase polyprotein 1ab (Severe acute respiratory syndrome coronavirus 2) (UniProt P0DTD1); assay: Inhibition of SARS-CoV-2 RdRp mediated RNA synthesis in HEK-293T cells cotransfected with pCoV-GLuc and pCMV6-nsp12/nsp7/nsp8 assessed as reduction in minus strand RNA level by measuring GLuc RNA level for 24 hrs in the presence of coelenterazine-h by Gaussia luciferase reporter assay; type: cell-based; conditions: dose 2-10 µM
[6] = molecular target: Replicase polyprotein 1ab (Severe acute respiratory syndrome coronavirus 2) (UniProt P0DTD1); assay: Inhibition of SARS-CoV-2 RdRp mediated RNA synthesis in HEK-293T cells cotransfected with pCoV-GLuc and pCMV6-nsp12/nsp7/nsp8 assessed as reduction in plus strand RNA level by measuring GLuc RNA level for 24 hrs in the presence of coelenterazine-h by Gaussia luciferase reporter assay; type: cell-based; conditions: dose 2-10 µM
[7] = Selectivity index, ratio of CC50 for cytotoxicity against HEK293T cells assessed as inhibition of cell growth to EC50 for antiviral activity against SARS-CoV-2 infected in HEK293T cells assessed as inhibition of SARS-CoV-2 RdRp; type: toxicity, cell-based; conditions: human, read-out: Ratio CC50/EC50
[8] = molecular target: T1, Replicase polyprotein 1ab; assay: Inhibition of his tagged SARS-CoV-2 nsp12 in HEK-293T cells cotransfected with pCoV-GLuc incubated for 24 hrs in the presence of coelenterazine-h by Gaussia luciferase reporter assay; type: cell-based
Human coronavirus OC43 [9] = assay: Antiviral activity against HCoV-OC43 infected in human HCT-8 cells at a MOI of 0.1 assessed as inhibition of viral replication measured after 5 days by MTS assay; type: functional, organism-based; conditions: Betacoronavirus 1, HCT-8, 120 h
Human coronavirus NL63 = assay: Antiviral activity against HCoV-NL63 infected in Rhesus monkey LLC-MK2 cells at a MOI of 0.01 assessed as inhibition of viral replication measured after 120 hrs by MTS assay; type: functional, organism-based; conditions: Human coronavirus NL63, LLC-MK2, 120 h
[10] = molecular target: Replicase polyprotein 1ab (Severe acute respiratory syndrome coronavirus 2) (UniProt P0DTD1); assay: Inhibition of SARS-CoV-2 RdRp mediated RNA synthesis in HEK-293T cells cotransfected with pCoV-GLuc and pCMV6-nsp12/nsp7/nsp8 assessed as reduction in plus strand RNA level at 10 uM by measuring GLuc RNA level for 24 hrs in the presence of coelenterazine-h by Gaussia luciferase reporter assay relative to control; type: cell-based
[11] = Cytotoxicity against human HCT-8 cells incubated for 48 hrs by CCK8 method; type: toxicity, cell-based
[12] = molecular target: Replicase polyprotein 1ab (Severe acute respiratory syndrome coronavirus 2) (UniProt P0DTD1); assay: Inhibition of SARS-CoV-2 RdRp mediated RNA synthesis in HEK-293T cells cotransfected with pCoV-GLuc and pCMV6-nsp12/nsp7/nsp8 assessed as reduction in minus strand RNA level at 10 uM by measuring GLuc RNA level for 24 hrs in the presence of coelenterazine-h by Gaussia luciferase reporter assay relative to control; type: cell-based
[13] = Cytotoxicity against Rhesus monkey LLC-MK2 cells incubated for 48 hrs by method; type: toxicity, cell-based, Macaca mulatta
[14] = molecular target: T1, Replicase polyprotein 1ab; assay: Binding affinity to SARS-CoV-2 nsp12 expressed in Escherichia coli BL21 (DE3) cells using biotinylated EZ-link NHS-LC-LC assessed as dissociation constant incubated for 180 sec by BLI assay
Human coronavirus OC43 [15] = assay: Antiviral activity against HCoV-OC43(Rluc) infected in BHK-21 cells assessed as inhibition of viral infection at 10 uM pre-infected with virus for 2 hrs followed by compound addition measured after 24 hrs by luciferase assay; type: functional, organism-based
Human coronavirus OC43 [16] = assay: Antiviral activity against HCoV-OC43 infected in golden hamster BHK-21 cells assessed as inhibition of viral infection at 10 uM measured after 24 hrs by luciferase assay; type: functional, organism-based
Human coronavirus OC43 [17] = assay: Antiviral activity against HCoV-OC43(Rluc) infected in golden hamster BHK-21 cells assessed as inhibition of viral replication at 10 uM pre-infected with virus for 1 hrs followed by compound addition and measured after 24 hrs by luciferase assay; type: functional, organism-based
[18] = molecular target: Replicase polyprotein 1ab (Severe acute respiratory syndrome coronavirus 2) (UniProt P0DTD1); assay: Inhibition of SARS-CoV-2 3CLpro in HEK293T cells at 2 to 20 uM measured after 48 hrs by Western blot analysis; type: cell-based; conditions: dose 2-20 µM
SARS-CoV-2 = assay: Antiviral activity against SARS-CoV-2 C-Tan-n-CoV Wuhan infected in African green monkey Vero E6 cells assessed as inhibition of viral replication incubated for 24 hrs by qRT-PCR analysis; type: functional, organism-based; conditions: Severe acute respiratory syndrome coronavirus 2, C-Tan-n-CoV Wuhan, Vero C1008, 24 h
[19] = molecular target: T1, Replicase polyprotein 1ab; assay: Binding affinity to SARS-CoV-2 nsp12 expressed in Escherichia coli BL21 (DE3) cells using biotinylated EZ-link NHS-LC-LC assessed as dissociation constant at 6.25 to 100 uM incubated for 180 sec by BLI assay

SMILES	inhibition [1]	pEC50 [2]	CC50 at 48 h [3]	further results
Cc1cc(N)nc(N)c1/N=N/c1ccccc1	49.9%	–	–	–
CN(C)c1ccc(/N=N/c2ccc(N)nc2N)cc1	50.1%	5.02	> 100 µM	–
CC(C)(C)OC(=O)N[C@@H](Cc1c[nH]c2ccccc12)C(=O)Nc1nc(N)ccc1/N=N/c1ccccc1	79.8%	5.42	79.2 µM	–
CSCC[C@H](NC(=O)OC(C)(C)C)C(=O)Nc1nc(N)ccc1/N=N/c1ccccc1	83%	5.88	> 100 µM	pEC50 [4]: 5.86; inhibition [5]: Dose-dependent-effect; inhibition [6]: Dose-dependent-effect; selectivity ratio [7]: 75.2; pEC50 [8]: 5.88
Nc1ccc(/N=N/c2ccc(Cl)cc2)c(N)n1	64.5%	5.12	> 100 µM	–
Nc1ccc(/N=N/c2ccc(C(F)(F)F)cc2)c(N)n1	74.9%	5.20	> 100 µM	–
Nc1ccc(/N=N/c2ccccc2)c(NC(=O)[C@@H](N)Cc2c[nH]c3ccccc23)n1	82.7%	5.79	81.9 µM	pEC50 [4]: 5.82; inhibition [5]: Dose-dependent-effect; inhibition [6]: Dose-dependent-effect; selectivity ratio [7]: 50; pEC50 [8]: 5.79
C[C@H](NC(=O)OC(C)(C)C)C(=O)Nc1nc(N)ccc1/N=N/c1ccccc1	86%	5.85	> 100 µM	pEC50 [4]: 5.76; inhibition [5]: Dose-dependent-effect; inhibition [6]: Dose-dependent-effect; selectivity ratio [7]: 70.4; pEC50 [8]: 5.85
Nc1ccc(/N=N/c2ccc(F)cc2)c(N)n1	64.9%	5.06	> 100 µM	–
CSCC[C@H](N)C(=O)Nc1nc(N)ccc1/N=N/c1ccccc1	55.3%	5.14	> 100 µM	–
Oc1ccc(/N=N/c2ccccc2)cc1	45.4%	–	–	–
CCC(CC)COC(=O)[C@H](C)N[P@](=O)(OC[C@H]1O[C@@](C#N)(c2ccc3c(N)ncnn23)[C@H](O)[C@@H]1O)Oc1ccccc1	–	–	> 100 µM	inhibition [5]: Dose-dependent-effect; inhibition [6]: Dose-dependent-effect; pEC50 (Human coronavirus OC43 [9]): 5.72; pEC50 (Human coronavirus NL63): 5.57; inhibition [10]: 80%; CC50 at 48 h [11]: > 100 µM; inhibition [12]: 80%; CC50 at 48 h [13]: > 100 µM
Cl.Nc1ccc(/N=N/c2ccccc2)c(N)n1 [PHENAZOPYRIDINE HYDROCHLORIDE]	50%	5.13	> 100 µM	pEC50 [4]: 5.10; inhibition [5]: Dose-dependent-effect; inhibition [6]: Dose-dependent-effect; pEC50 (Human coronavirus OC43 [9]): 5.33; pEC50 (Human coronavirus NL63): 5.26; Kd [14]: Dose-dependent-effect; selectivity ratio [7]: > 13.6; inhibition (Human coronavirus OC43 [15]): Active; inhibition [10]: 90%; CC50 at 48 h [11]: > 100 µM; pEC50 [8]: 5.13; inhibition (Human coronavirus OC43 [16]): Active; inhibition (Human coronavirus OC43 [17]): Active; Minor Effects Was Observed; CC50 at 48 h [13]: > 100 µM; inhibition [18]: inactive; pEC50 (SARS-CoV-2): 5.27; pKd [19]: 5.30
CC(C)(C)OC(=O)NCC(=O)Nc1nc(N)ccc1/N=N/c1ccccc1	77.4%	5.77	> 100 µM	–
Cc1ccc(/N=N/c2ccc(N)nc2N)cc1	59.1%	5.07	> 100 µM	–
Nc1nc(N)c(/N=N/c2ccccc2)cc1Br	51.1%	4.88	> 100 µM	–
Nc1cc(-c2ccccc2)c(/N=N/c2ccccc2)c(N)n1	65.6%	5.08	> 100 µM	–
NCC(=O)Nc1nc(N)ccc1/N=N/c1ccccc1	52.4%	5.03	> 100 µM	–
Nc1cc(Br)c(/N=N/c2ccccc2)c(N)n1	41.9%	–	–	–
Nc1ccc(/N=N/c2ccccc2)c(NC(=O)[C@@H]2CCCN2)n1	72.9%	5.42	> 100 µM	–
Nc1ccc(/N=N/c2ccc(Br)cc2)c(N)n1	71.8%	5.06	> 100 µM	–
C[C@H](N)C(=O)Nc1nc(N)ccc1/N=N/c1ccccc1	48.2%	–	–	–
CC(C)(C)OC(=O)N[C@@H](Cc1ccccc1)C(=O)Nc1nc(N)ccc1/N=N/c1ccccc1	79.8%	5.58	> 100 µM	–
Nc1nc(N)c(/N=N/c2ccccc2)cc1/N=N/c1ccccc1	46%	–	–	–
COc1ccc(/N=N/c2ccc(N)nc2N)cc1	48%	–	–	–
Nc1ccc(/N=N/c2ccccc2)c(NC(=O)[C@@H](N)Cc2ccccc2)n1	56.7%	5.06	> 100 µM	–
Nc1ccc(/N=N/c2ccc(OCc3ccccc3)cc2)c(N)n1	65.3%	5.15	> 100 µM	–
Nc1ccc(/N=N/c2cccc3c2CCCC3)c(N)n1	71.8%	5.13	78.9 µM	–
Nc1ccc(/N=N/c2ccc(Cc3ccccc3)cc2)c(N)n1	59.3%	5.19	> 100 µM	–
Nc1ccc(/N=N/c2ccc([N+](=O)[O-])cc2)c(N)n1	45.8%	–	–	–
